Experimental data: ChEMBL document CHEMBL5543097, “Synthesis and structure-activity relationships of novel 14-membered 2-fluoro ketolides with structural modification at the C11 position” (Eur J Med Chem, 2024)
Values after ≈ are worked out from the molar mass of the structure shown.

Experiments:
Moraxella catarrhalis [1] = assay: Antibacterial activity against Moraxella catarrhalis BCA 19-5 assessed as inhibition of bacterial growth incubated for 24 hrs by CLSI based broth microdilution method; assay type: functional; conditions: Moraxella catarrhalis, BCA 19-5, 24 h, read-out: MIC
Haemophilus influenzae [2] = assay: Antibacterial activity against Haemophilus influenzae HIN 19-18 assessed as inhibition of bacterial growth incubated for 20 to 24 hrs by CLSI based broth microdilution method; assay type: functional; conditions: HIN 19-18, time 20-24 hrs
[3] = test system: Staphylococcus epidermidis; assay: Antibacterial activity against erythromycin-resistant Staphylococcus epidermidis 19-9 assessed as inhibition of visible bacterial growth incubated for 18 hrs by broth microdilution method; assay type: functional
Streptococcus pneumoniae [4] = assay: Antibacterial activity against erythromycin-resistant Streptococcus pneumoniae SPN19-8 assessed as inhibition of visible bacterial growth incubated for 18 hrs by broth microdilution method; assay type: functional
Streptococcus pneumoniae [5] = assay: Antibacterial activity against erythromycin-resistant Streptococcus pneumoniae SPN19-13 assessed as inhibition of visible bacterial growth incubated for 18 hrs by broth microdilution method; assay type: functional
Haemophilus influenzae [6] = assay: Antibacterial activity against Haemophilus influenzae HIN 20-18 assessed as inhibition of bacterial growth incubated for 20 to 24 hrs by CLSI based broth microdilution method; assay type: functional; conditions: time 20-24 hrs
Moraxella catarrhalis [7] = assay: Antibacterial activity against Moraxella catarrhalis BCA 19-31 assessed as inhibition of bacterial growth incubated for 24 hrs by CLSI based broth microdilution method; assay type: functional; conditions: BCA 19-31, 24 h
[8] = test system: Staphylococcus epidermidis; assay: Antibacterial activity against erythromycin-resistant Staphylococcus epidermidis 19-5 assessed as inhibition of visible bacterial growth incubated for 18 hrs by broth microdilution method; assay type: functional
Streptococcus agalactiae [9] = assay: Antibacterial activity against erythromycin-resistant Streptococcus agalactiae 19-9 assessed as inhibition of visible bacterial growth incubated for 18 hrs by broth microdilution method; assay type: functional
[10] = test system: Staphylococcus epidermidis; assay: Antibacterial activity against erythromycin-resistant Staphylococcus epidermidis 19-8 assessed as inhibition of visible bacterial growth incubated for 18 hrs by broth microdilution method; assay type: functional
[11] = test system: Staphylococcus epidermidis; assay: Antibacterial activity against erythromycin-resistant Staphylococcus epidermidis 19-6 assessed as inhibition of visible bacterial growth incubated for 18 hrs by broth microdilution method; assay type: functional
Moraxella catarrhalis [12] = assay: Antibacterial activity against Moraxella catarrhalis BCA 19-6 assessed as inhibition of bacterial growth incubated for 24 hrs by CLSI based broth microdilution method; assay type: functional; conditions: Moraxella catarrhalis, BCA 19-6, 24 h, read-out: MIC
[13] = test system: Staphylococcus epidermidis; assay: Antibacterial activity against erythromycin-resistant Staphylococcus epidermidis 19-11 assessed as inhibition of visible bacterial growth incubated for 18 hrs by broth microdilution method; assay type: functional
[14] = test system: Staphylococcus epidermidis; assay: Antibacterial activity against erythromycin-resistant Staphylococcus epidermidis 19-4 assessed as inhibition of visible bacterial growth incubated for 18 hrs by broth microdilution method; assay type: functional
Streptococcus pyogenes = assay: Antibacterial activity against erythromycin-resistant Streptococcus pyogenes ATCC 19615 assessed as inhibition of visible bacterial growth incubated for 18 hrs by broth microdilution method; assay type: functional
Streptococcus pneumoniae [15] = assay: Antibacterial activity against erythromycin-resistant Streptococcus pneumoniae SPN19-14 assessed as inhibition of visible bacterial growth incubated for 18 hrs by broth microdilution method; assay type: functional
[16] = Cytotoxicity against mouse AML12 cells assessed as reduction in cell viability incubated for 48 hrs by MTT assay; assay type: toxicity, cell-based
Haemophilus influenzae [17] = assay: Antibacterial activity against Haemophilus influenzae HIN 19-15 assessed as inhibition of bacterial growth incubated for 20 to 24 hrs by CLSI based broth microdilution method; assay type: functional; conditions: time 20-24 hrs
Streptococcus agalactiae [18] = assay: Antibacterial activity against erythromycin-resistant Streptococcus agalactiae 19-8 assessed as inhibition of visible bacterial growth incubated for 18 hrs by broth microdilution method; assay type: functional

SMILES	MIC (Moraxella catarrhalis [1]) [µg/mL]	MIC (Haemophilus influenzae [2]) [µg/mL]	MIC [3] [µg/mL]	MIC (Streptococcus pneumoniae [4]) [µg/mL]	MIC (Streptococcus pneumoniae [5]) [µg/mL]	MIC (Haemophilus influenzae [6]) [µg/mL]	MIC (Moraxella catarrhalis [7]) [µg/mL]	MIC [8] [µg/mL]	MIC (Streptococcus agalactiae [9]) [µg/mL]	MIC [10] [µg/mL]	MIC [11] [µg/mL]	MIC (Moraxella catarrhalis [12]) [µg/mL]	MIC [13] [µg/mL]	MIC [14] [µg/mL]	MIC (Streptococcus pyogenes) [µg/mL]	MIC (Streptococcus pneumoniae [15]) [µg/mL]	CC50 at 48 h [16] [µM]	MIC (Haemophilus influenzae [17]) [µg/mL]	MIC (Streptococcus agalactiae [18]) [µg/mL]
CC[C@H]1OC(=O)[C@@](C)(F)C(=O)[C@H](C)[C@@H](O[C@@H]2O[C@H](C)C[C@H](N(C)C)[C@H]2O)[C@](C)(OC)C[C@@H](C)C(=O)[C@H](C)[C@H]2N(CCCOC(=O)Nc3ccc(Cl)cc3C)C(=O)O[C@]12C	0.125 (≈ 0.146 µM)	4 (≈ 4.67 µM)	< 0.03	0.25 (≈ 0.292 µM)	0.125 (≈ 0.146 µM)	16 (≈ 18.7 µM)	0.125 (≈ 0.146 µM)	< 0.03	0.5 (≈ 0.584 µM)	0.125 (≈ 0.146 µM)	0.125 (≈ 0.146 µM)	0.25 (≈ 0.292 µM)	0.06 (≈ 0.0701 µM)	0.03 (≈ 0.035 µM)	< 0.03	0.125 (≈ 0.146 µM)	12.8	8 (≈ 9.34 µM)	–
CC[C@H]1OC(=O)[C@H](C)[C@@H](O[C@H]2C[C@@](C)(OC)[C@@H](O)[C@H](C)O2)[C@H](C)[C@@H](O[C@@H]2O[C@H](C)C[C@H](N(C)C)[C@H]2O)[C@](C)(OC)C[C@@H](C)C(=O)[C@H](C)[C@@H](O)[C@]1(C)O [CLARITHROMYCIN]	> 64	8 (≈ 10.7 µM)	16 (≈ 21.4 µM)	> 64	64 (≈ 85.6 µM)	> 16	0.125 (≈ 0.167 µM)	0.25 (≈ 0.334 µM)	64 (≈ 85.6 µM)	> 64	64 (≈ 85.6 µM)	32 (≈ 42.8 µM)	16 (≈ 21.4 µM)	> 64	< 0.03	0.5 (≈ 0.668 µM)	> 100	4 (≈ 5.35 µM)	0.06 (≈ 0.0802 µM)
CC[C@H]1OC(=O)[C@@](C)(F)C(=O)[C@H](C)[C@@H](O[C@@H]2O[C@H](C)C[C@H](N(C)C)[C@H]2O)[C@](C)(OC)C[C@@H](C)C(=O)[C@H](C)[C@H]2N(CCCOC(=O)Nc3ccc(Cl)cc3)C(=O)O[C@]12C	9.12 (≈ 10.8 µM)	8 (≈ 9.5 µM)	0.125 (≈ 0.148 µM)	0.25 (≈ 0.297 µM)	0.125 (≈ 0.148 µM)	16 (≈ 19 µM)	11.1 (≈ 13.2 µM)	< 0.03	1 (≈ 1.19 µM)	0.03 (≈ 0.0356 µM)	< 0.03	0.25 (≈ 0.297 µM)	< 0.03	0.03 (≈ 0.0356 µM)	< 0.03	0.125 (≈ 0.148 µM)	26	8 (≈ 9.5 µM)	–
CC[C@H]1OC(=O)[C@@](C)(F)C(=O)[C@H](C)[C@@H](O[C@@H]2O[C@H](C)C[C@H](N(C)C)[C@H]2O)[C@](C)(OC)C[C@@H](C)C(=O)[C@H](C)[C@H]2N(CCCOC(=O)Nc3c(F)cccc3F)C(=O)O[C@]12C	0.122 (≈ 0.145 µM)	4 (≈ 4.74 µM)	0.25 (≈ 0.296 µM)	0.125 (≈ 0.148 µM)	0.125 (≈ 0.148 µM)	16 (≈ 19 µM)	0.125 (≈ 0.148 µM)	< 0.03	1 (≈ 1.18 µM)	0.125 (≈ 0.148 µM)	0.125 (≈ 0.148 µM)	0.125 (≈ 0.148 µM)	< 0.03	0.03 (≈ 0.0355 µM)	< 0.03	0.125 (≈ 0.148 µM)	> 100	4 (≈ 4.74 µM)	–
CC[C@H]1OC(=O)[C@@](C)(F)C(=O)[C@H](C)[C@@H](O[C@@H]2O[C@H](C)C[C@H](N(C)C)[C@H]2O)[C@](C)(OC)C[C@@H](C)C(=O)[C@H](C)[C@H]2N(CCCOC(=O)Nc3cccc(C)c3C)C(=O)O[C@]12C	0.125 (≈ 0.15 µM)	8 (≈ 9.57 µM)	0.125 (≈ 0.15 µM)	0.125 (≈ 0.15 µM)	0.06 (≈ 0.0718 µM)	16 (≈ 19.1 µM)	0.125 (≈ 0.15 µM)	< 0.03	1 (≈ 1.2 µM)	< 0.03	0.03 (≈ 0.0359 µM)	0.125 (≈ 0.15 µM)	0.03 (≈ 0.0359 µM)	0.03 (≈ 0.0359 µM)	< 0.03	0.06 (≈ 0.0718 µM)	26	8 (≈ 9.57 µM)	–
